From patent US8461297B2, “Cytoplasmic malate dehydrogenase (MDH1) targeted treatment for neurodegenerative diseases” (Ramot at Tel-Aviv University, Ltd., priority 2007, dated 2013)
Ends that are not written are not given here. 5,6‑TAMRA = 5,6-carboxytetramethylrhodamine fluorescent label at the N-terminus

Columns and labels:
Assay type in all cases: cell-based
[1] = test system: WT-hSOD1-GFP-expressing NSC-34 cells; experiment: Cell survival (methylene blue assay) under rotenone or low-glucose challenge, WT-hSOD1-GFP cells
Procedure: (§1) The functional significance of the loss of such interaction was assessed by alleviation of the rotenone (a mitochondrial inhibitor) or low-glucose challenge in NSC-34 clones expressing an inducible form of the mutant G93A SOD1-GFP as monitored by cell survival. The […] (SEQ ID NO: 1) peptide was synthesized (SBS Gentech Beijing) with 5,6-TAMRA modification (to allow detection) at the N-terminus. The TAMRA-modified peptide was dissolved in 10% acetic acid and added to cell culture medium in culture medium containing 1% ethanol. Thus, 15,000 cells (WT-hSOD1 or G93A-hSOD1) seeded in each well of a 96-well plate in DMEM, 10% serum. 24 hours later, cells were incubated with 1*10^-6M cytMDH peptide (or acetic acid/ethanol vehicle) for 4 h without serum. 1-10 micromole/L Rotenone in DMEM, 10% serum was then added for 24 hours, or medium replaced with low glucose (1 mg/ml) in DMEM with 5% serum for 72 hours. Cell survival was then assessed. It was expected that if the identified peptide interaction is resolving the gain of toxic interaction of G93A SOD1-GFP, then survival of the cells upon rotenone- or low-glucose challenge will improve.
(§2) 15,000 cells (WT-hSOD1 or G93A-hSOD1) were seeded in each well of a 96 well-plate in DMEM, 10% serum. 24 hours later, the cells were incubated with 3 mM octanoic acid with and without 1-10 micromole/L rotenone in DMEM, 10% serum for 24 hours. Or, cells were incubated with 3 mM octanoic acid and medium replaced with regular ([…]) or low (1 mg/ml) glucose in DMEM with 5% serum for 72 hours. Cell survival was then assessed. It was expected that if the gain of toxic interaction of G93A SOD1-GFP is due to inhibition of the malate-aspartate shuttle, octanoic acid will provide an alternative energy source through the alternative shunt and the survival of the cells upon rotenone or low-glucose challenge will improve.
(§3) Cell survival was assessed by the methylene blue assay. Cells were fixed with 4% formaldehyde solution for 1 h, then washed with 0.1M sodium borate buffer pH8.5, stained with 1% methylene blue for 20 min and washed with water. Cell-bound dye was eluted with 200 μl of 0.1M HCl. The optical density was assessed at 595 nm in ELISA plate reader.
(§4) The […] (SEQ ID NO: 1) peptide was synthesized (SBS Gentech Beijing) with 5,6-TAMRA modification (to allow detection) at the N-terminus, dissolved in 10% acetic acid, and diluted in cell culture medium containing 1% ethanol. Thus, 15,000 cells (WT-hSOD1 or G93A-hSOD1) seeded in each well of 96 wells plate in DMEM, 10% serum and doxycline (to induce expression of the hSOD1 proteins). 24 hours later, medium was replaced with serum free DMEM, and cells were incubated with 1 micromol/liter of the TAMRA-labeled […] peptide or vehicle (1% acetic acid/ethanol) for 4 hours. […] Cell survival was then assessed.

[2] = test system: G93A-hSOD1-GFP-expressing NSC-34 cells; experiment: Cell survival (methylene blue assay) under rotenone or low-glucose challenge, G93A-hSOD1-GFP cells
Procedure: as §1, §2, §3, §4

[3] = target: T1, G93A-hSOD1/cytMDH complex (Homo sapiens, UniProt P00441, G94A); experiment: FACS-based FRET test of peptides competing for the G93A-hSOD1-CFP/cytMDH-YFP interaction in co-transfected NSC-34 cells; details: myc-tagged peptide expression plasmid co-transfected at 1:1:1 ratio, excitation 405 nm, emission 530 nm
T1 construct: expressed in transfected cells; host or cells: NSC-34 cells (transient co-transfection)
From the text: The screening method was based on the fluorescence resonance energy transfer (FRET) system between cyan fluorescence protein (CFP) chimera proteins and yellow fluorescence protein (YFP) chimera proteins. The present inventors designed and used this system to identify the specific interaction of G93A SOD1 with MDH1 so as to identify a motif within MDH1 that is critical for the G93A SOD1-MDH1 interaction. The agents tested were peptides derived from MDH1.
A Myc-tagged peptide library expressing small fragments of the MDH1 was prepared. MDH1 cDNA was digested with AluI or/and DpnI and the fragments were cloned so that each peptide was placed in the correct reading frame of the original protein and in frame to the human myc tag sequence. G93A SOD1-CFP and MDH1-YFP expression plasmids were transfected into NSC-34 cells with and without the myc-tagged library.
The hypothesis is that the specific MDH1-derived peptides comprising the interacting motif will compete with MDH1 for the G93A SOD1-MDH1 interaction site. In such case, the CFP and YFP fluorescence of the G93A SOD1-CFP and MDH1-YFP will still be present, but the FRET signal will be diminished. The screening studies were performed using a cell sorter (FACS) with 405 nm excitation laser and a 530/30 nm emission filter. […] RNA was extracted from the sorted cells, converted into cDNA and subjected to PCR amplification in order to amplify the peptides DNA sequences.
The DNA sequence from the sorted cells was re-cloned. Four clones were obtained, one corresponding to amino acids 14-27 of the cytMDH protein GQIAHSLLYSIGNG (SEQ ID NO: 2) and three corresponding to amino acids 217-239 of the cytMDH protein […] (SEQ ID NO: 1). The identified clones were re-analyzed in the FACS-based system to verify their ability to compete for the G93A SOD1-MDH1 interaction at 1:1:1 ratio levels. Thus, 5*10^6 NSC-34 cells were transfected with equal amounts of G93A-hSOD1-CFP and cytMDH-YFP and the suspected myc-tagged cytMDH peptide-expressing plasmids.
Ability of the 217-239 peptide to disrupt the G93A-hSOD1-cytMDH1 complex was tested by co-transfection into NSC-34 cells of constructs encoding myc-tagged 217-239 and the FRET-enabled G93A-hSOD1/cytMDH proteins, followed by FACS analysis to measure FRET.

T1 sequence (P00441 2-154 G94A limits assumed, one chain of several): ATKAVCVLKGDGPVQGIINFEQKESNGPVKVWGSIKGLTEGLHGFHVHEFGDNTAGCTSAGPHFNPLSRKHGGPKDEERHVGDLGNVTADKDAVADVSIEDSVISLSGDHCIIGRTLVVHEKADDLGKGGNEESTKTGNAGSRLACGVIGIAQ

Row | Compound | effects of low glucose on cell viability in the presence of octanoic acid ([1]; 3 mM octanoic acid, low (1 mg/ml) glucose DMEM, 5% serum, 72 h, WT-hSOD1-GFP cells) | effects of rotenone on cell viability in the presence of octanoic acid ([1]; 3 mM octanoic acid, rotenone 1.25 micromol/liter for 24 h, WT-hSOD1-GFP cells) | effects of low glucose on cell viability in the presence of octanoic acid ([2]; 3 mM octanoic acid, low (1 mg/ml) glucose DMEM, 5% serum, 72 h, G93A-hSOD1-GFP cells) | effects of rotenone on cell viability in the presence of octanoic acid ([2]; 3 mM octanoic acid, rotenone 1.25 micromol/liter for 24 h, G93A-hSOD1-GFP cells) | FRET signal of G93A-hSOD1-CFP/cytMDH-YFP (disruption of the complex) [3] | FRET signal of G93A-hSOD1-CFP/cytMDH-YFP (disruption of the complex) ([3]; listed as peptide 14-27) | effects of rotenone on cell viability in the presence of peptide ([1]; 1 micromol/liter TAMRA-labeled peptide 4 h, then 0.5 micromol/L rotenone 24 h, WT-hSOD1-GFP cells) | effects of low glucose on cell viability in the presence of peptide ([1]; 1 micromol/liter TAMRA-labeled peptide, low glucose (1 mg/ml) DMEM, 5% serum, 72 h, WT-hSOD1 cells) | FRET signal of G93A-hSOD1-CFP/cytMDH-YFP (disruption of the complex) ([3]; listed as SEQ ID NO: 1) | FRET signal of G93A-hSOD1-CFP/cytMDH-YFP (disruption of the complex) ([3]; listed as peptide 217-239) | effects of rotenone on cell viability in the presence of peptide ([2]; 1 micromol/liter TAMRA-labeled peptide 4 h, then 0.5 micromol/L rotenone 24 h, G93A-hSOD1-GFP cells) | effects of low glucose on cell viability in the presence of peptide ([2]; 1 micromol/liter TAMRA-labeled peptide, low glucose (1 mg/ml) DMEM, 5% serum, 72 h, G93A-hSOD1 cells)
1 | CCCCCCCC(=O)O [octanoic acid, reference compound] | not | not | greatly diminished | greatly diminished | – | – | – | – | – | – | – | –
2 | GQIAHSLLYSIGNG (listed as Mus musculus) [14-27 peptide] | – | – | – | – | found not to inhibit the interaction | positive FRET | – | – | – | – | – | –
3 | SWLKGEFITTVQQRGAAVIKARK ({5,6‑TAMRA}-SWLKGEFITTVQQRGAAVIKARK; listed as Mus musculus) [217-239 peptide, amino acids 217-239 of the cytMDH protein] | – | – | – | – | blocked FRET | – | not | not | prevented the FRET | negative FRET | greatly diminished | significantly diminished
